Read-outs that look alike come from different tables or passages of the source. Values belong to the compound of their own block, whether it stands above or below them.
Assays:
native human MPO = native human MPO (Homo sapiens, UniProt P05164); experiment: MPO-catalysed H2O2 consumption, Amplex Red assay; type: biochemical
MPO [1] = molecular target: T1, MPO (Homo sapiens, UniProt P05164); experiment: MPO-catalysed H2O2 consumption, H2O2-specific electrode; type: biochemical
MPO [2] = molecular target: T1, MPO; experiment: MPO chlorination assay; type: biochemical
MPO [3] = molecular target: T1, MPO; experiment: MPO LDL lipid peroxidation assay; type: biochemical
MPO [4] = molecular target: T1, MPO; experiment: MPO partition ratio assay; type: biochemical; conditions: mean ± SEM, n = 3; MPO 60 nM, 2 μM H2O2
MAO-A, human = MAO-A, human (Homo sapiens, UniProt P21397); experiment: MAO-A activity assay; type: biochemical; conditions: compared to MPO or VAP-1
Sequence of MAO-A, human (P21397 whole entry): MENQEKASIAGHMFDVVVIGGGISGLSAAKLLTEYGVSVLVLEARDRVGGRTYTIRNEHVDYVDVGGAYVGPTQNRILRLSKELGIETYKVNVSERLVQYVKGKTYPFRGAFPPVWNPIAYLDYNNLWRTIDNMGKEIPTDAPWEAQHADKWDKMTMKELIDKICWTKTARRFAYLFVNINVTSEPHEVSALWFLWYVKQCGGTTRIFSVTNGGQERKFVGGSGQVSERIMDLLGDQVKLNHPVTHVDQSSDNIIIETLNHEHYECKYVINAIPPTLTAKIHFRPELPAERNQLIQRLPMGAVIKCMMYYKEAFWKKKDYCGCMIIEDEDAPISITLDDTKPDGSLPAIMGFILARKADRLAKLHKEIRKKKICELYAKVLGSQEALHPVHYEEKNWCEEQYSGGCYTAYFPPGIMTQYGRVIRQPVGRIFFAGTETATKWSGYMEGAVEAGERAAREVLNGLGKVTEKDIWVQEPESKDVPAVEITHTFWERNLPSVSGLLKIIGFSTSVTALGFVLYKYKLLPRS

LOX, human = LOX, human (Homo sapiens, UniProt P28300); experiment: LOX activity assay; type: biochemical; conditions: compared to MPO or VAP-1
Sequence of LOX, human (P28300 169-417): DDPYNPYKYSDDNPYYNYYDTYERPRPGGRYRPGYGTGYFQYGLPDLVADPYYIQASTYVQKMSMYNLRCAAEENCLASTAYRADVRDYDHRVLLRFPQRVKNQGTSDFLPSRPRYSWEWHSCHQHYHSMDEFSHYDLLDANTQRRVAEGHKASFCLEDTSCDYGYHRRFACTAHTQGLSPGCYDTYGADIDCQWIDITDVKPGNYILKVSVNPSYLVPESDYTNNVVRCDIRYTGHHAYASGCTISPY

HepG2 cells = type: cell-based; conditions: tested up to 100 μM in HepG2 cells
recombinant human VAP-1 = recombinant human VAP-1 (Homo sapiens, UniProt Q16853); type: biochemical; conditions: 30 μM, 40 min, 37 °C
Sequence of recombinant human VAP-1 (Q16853 34-763): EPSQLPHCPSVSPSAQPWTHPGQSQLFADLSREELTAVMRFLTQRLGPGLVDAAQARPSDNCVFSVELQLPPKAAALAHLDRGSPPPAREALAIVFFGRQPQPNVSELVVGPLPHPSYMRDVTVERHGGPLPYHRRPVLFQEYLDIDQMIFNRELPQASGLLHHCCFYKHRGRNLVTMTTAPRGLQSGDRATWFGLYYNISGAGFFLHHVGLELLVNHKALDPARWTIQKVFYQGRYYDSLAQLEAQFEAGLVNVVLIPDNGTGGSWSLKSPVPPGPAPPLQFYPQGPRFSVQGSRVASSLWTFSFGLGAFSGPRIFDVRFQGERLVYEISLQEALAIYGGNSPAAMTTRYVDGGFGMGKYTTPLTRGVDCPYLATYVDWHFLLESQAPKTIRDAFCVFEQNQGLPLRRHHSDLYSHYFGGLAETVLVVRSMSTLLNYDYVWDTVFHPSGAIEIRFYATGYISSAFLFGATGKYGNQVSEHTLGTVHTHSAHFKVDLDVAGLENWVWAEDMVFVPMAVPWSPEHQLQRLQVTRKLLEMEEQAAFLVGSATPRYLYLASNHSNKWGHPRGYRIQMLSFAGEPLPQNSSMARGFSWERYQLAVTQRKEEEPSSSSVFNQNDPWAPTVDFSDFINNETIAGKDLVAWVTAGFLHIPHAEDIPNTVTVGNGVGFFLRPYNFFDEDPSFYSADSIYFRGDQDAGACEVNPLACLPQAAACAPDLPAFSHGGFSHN

human DAO = human DAO (Homo sapiens, UniProt P19801); type: biochemical; conditions: 30 μM, 40 min, 37 °C
Sequence of human DAO (P19801 20-751): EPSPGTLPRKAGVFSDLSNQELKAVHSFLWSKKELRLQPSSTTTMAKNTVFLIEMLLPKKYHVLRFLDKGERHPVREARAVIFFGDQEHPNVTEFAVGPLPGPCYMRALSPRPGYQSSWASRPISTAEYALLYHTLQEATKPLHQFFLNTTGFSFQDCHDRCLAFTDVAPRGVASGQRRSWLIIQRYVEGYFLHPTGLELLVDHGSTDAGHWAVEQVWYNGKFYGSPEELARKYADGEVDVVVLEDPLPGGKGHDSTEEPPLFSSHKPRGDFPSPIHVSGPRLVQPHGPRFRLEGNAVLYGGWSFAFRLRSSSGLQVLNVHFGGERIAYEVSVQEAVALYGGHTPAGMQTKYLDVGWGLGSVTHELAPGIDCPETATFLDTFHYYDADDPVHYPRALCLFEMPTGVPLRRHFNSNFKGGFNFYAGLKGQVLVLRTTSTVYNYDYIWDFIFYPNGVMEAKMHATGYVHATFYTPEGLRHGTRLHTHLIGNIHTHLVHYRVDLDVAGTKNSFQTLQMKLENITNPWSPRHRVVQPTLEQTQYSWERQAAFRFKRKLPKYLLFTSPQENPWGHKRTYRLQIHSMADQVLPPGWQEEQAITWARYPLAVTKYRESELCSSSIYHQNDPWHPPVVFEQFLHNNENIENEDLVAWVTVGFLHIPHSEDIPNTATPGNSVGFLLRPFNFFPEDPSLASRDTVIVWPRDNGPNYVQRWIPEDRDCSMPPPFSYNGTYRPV

[5] = test system: panel of 14 common transporters; type: in vitro ADME, human; conditions: 30 µM; 14 targets screened
in vivo = type: in vivo, C57Bl/6J mice; conditions: mouse
MPO [6] = molecular target: MPO (Mus musculus, UniProt P11247); experiment: Acute peritonitis; type: in vivo; conditions: for reduction of peritoneal MPO activity: oral 60 mg/kg; for effect on lavage fluid MPO protein concentration (ELISA): thioglycolate broth/zymosan A-treated mice
Sequence of MPO (Mus musculus, UniProt P11247) (P11247 139-718): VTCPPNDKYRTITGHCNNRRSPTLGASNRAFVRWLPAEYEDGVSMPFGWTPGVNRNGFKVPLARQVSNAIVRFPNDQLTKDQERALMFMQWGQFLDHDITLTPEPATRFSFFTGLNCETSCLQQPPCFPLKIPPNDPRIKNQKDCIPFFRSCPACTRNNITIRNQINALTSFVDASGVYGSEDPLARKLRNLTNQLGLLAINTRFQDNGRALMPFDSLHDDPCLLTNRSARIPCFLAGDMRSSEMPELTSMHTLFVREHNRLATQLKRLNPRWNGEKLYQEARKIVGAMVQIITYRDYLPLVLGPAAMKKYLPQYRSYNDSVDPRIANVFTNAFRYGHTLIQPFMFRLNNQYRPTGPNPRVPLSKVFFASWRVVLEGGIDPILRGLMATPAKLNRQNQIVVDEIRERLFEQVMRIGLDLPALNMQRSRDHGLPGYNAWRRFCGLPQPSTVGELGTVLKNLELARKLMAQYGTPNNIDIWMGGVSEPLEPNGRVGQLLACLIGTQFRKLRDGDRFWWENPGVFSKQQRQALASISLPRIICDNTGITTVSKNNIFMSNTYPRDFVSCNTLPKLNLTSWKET

[7] = test system: thioglycolate broth-induced peritoneal leucocyte infiltration; experiment: Peritonitis leucocyte trafficking model; type: in vivo, mouse; conditions: 6 h; oral SNT-8370 60, verdiperstat 60, PXS-4707 6 mg/kg
VAP-1 = VAP-1 (Mus musculus, UniProt O70423); experiment: VAP-1 activity in adipose tissue; type: in vivo; conditions: 6 h; oral SNT-8370 60 mg/kg, PXS-4707 6 mg/kg
Sequence of VAP-1 (O70423 whole entry): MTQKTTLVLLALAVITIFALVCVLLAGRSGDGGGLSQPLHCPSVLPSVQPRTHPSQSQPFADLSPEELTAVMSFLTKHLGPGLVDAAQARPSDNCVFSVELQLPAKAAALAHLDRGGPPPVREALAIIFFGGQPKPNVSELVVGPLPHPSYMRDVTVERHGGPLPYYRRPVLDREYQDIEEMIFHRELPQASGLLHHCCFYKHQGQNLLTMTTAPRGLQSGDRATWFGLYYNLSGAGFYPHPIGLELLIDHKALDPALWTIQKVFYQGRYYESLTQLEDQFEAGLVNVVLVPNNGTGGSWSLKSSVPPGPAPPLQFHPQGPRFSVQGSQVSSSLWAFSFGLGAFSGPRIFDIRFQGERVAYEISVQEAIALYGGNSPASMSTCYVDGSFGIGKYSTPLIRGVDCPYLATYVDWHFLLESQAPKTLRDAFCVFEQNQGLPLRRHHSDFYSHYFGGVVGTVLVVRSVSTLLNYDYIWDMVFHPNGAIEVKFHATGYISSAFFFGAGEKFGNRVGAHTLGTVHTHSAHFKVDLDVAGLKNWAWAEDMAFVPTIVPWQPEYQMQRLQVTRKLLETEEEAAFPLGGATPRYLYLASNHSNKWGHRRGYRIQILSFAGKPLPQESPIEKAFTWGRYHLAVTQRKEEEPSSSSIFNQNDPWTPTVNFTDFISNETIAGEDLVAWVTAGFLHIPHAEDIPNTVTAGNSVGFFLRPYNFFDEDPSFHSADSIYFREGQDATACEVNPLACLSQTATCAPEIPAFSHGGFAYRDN

[8] = test system: λ-carrageenan-induced leucocyte infiltration and oedema; experiment: Carrageenan air pouch model; type: in vivo, mouse; conditions: for leucocyte influx into the air pouch at 4-h: oral SNT-8370 30, verdiperstat 15, PXS-4707 6, dexamethasone 10 mg/kg
[9] = test system: LPS-induced lung leucocyte infiltration; experiment: Acute lung injury; type: in vivo, mouse; conditions: 6 h post-LPS; oral SNT-8370 30, verdiperstat 30, PXS-4707 10 mg/kg
[10] = test system: myocardial ischaemia/reperfusion injury; experiment: Myocardial infarction; type: in vivo, rat; conditions: 60 mg/kg oral twice daily, 4 weeks
[11] = test system: panel of 68 enzymes, receptors, ion channels and transporters; conditions: 10 µM; 68 targets screened
[12] = for drug concentration in peritoneal lavage fluid: 5 h after gavage
[13] = SNT-8370 30, verdiperstat 15, PXS-4707 6, dexamethasone 10 mg/kg

T1 sequence (P05164 279-745): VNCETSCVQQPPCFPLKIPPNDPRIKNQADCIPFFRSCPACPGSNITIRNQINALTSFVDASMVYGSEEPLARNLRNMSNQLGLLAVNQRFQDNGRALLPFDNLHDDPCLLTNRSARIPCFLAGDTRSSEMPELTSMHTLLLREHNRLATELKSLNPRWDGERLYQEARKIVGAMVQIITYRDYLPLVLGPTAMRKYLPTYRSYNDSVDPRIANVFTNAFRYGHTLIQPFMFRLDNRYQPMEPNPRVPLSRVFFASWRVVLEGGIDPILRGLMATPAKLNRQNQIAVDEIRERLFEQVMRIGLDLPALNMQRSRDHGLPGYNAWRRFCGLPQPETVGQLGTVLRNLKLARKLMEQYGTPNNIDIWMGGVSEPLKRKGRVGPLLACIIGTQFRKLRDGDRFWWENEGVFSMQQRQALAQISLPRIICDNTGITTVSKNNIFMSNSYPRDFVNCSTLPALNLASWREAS
T1 sequence (P05164 165-273): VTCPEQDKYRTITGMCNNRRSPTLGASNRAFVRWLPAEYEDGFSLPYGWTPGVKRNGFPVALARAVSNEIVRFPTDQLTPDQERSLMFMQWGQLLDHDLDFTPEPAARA
Sequence of native human MPO (P05164 279-745): as the sequence (P05164 279-745) above
Sequence of native human MPO (P05164 165-273): as the sequence (P05164 165-273) above

SMILES: NC/C(=C\F)COc1cccc(Cn2c(=S)[nH]c(=O)c3[nH]cnc32)c1 [SNT-8370, (E)-3-(3-((2-(aminomethyl)-3-fluoroallyl)oxy)benzyl)-2-thioxo-1,2,3,7-tetrahydro-6H-purin-6-one]
MPO IC50 more potent than AZD5904 (native human MPO): ~ 3 fold | MPO IC50 more potent than verdiperstat (native human MPO): ~ 2 fold | fold lower IC50 than verdiperstat or PF06282999, H2O2 consumption (MPO [1]): 5-8 fold | fold lower IC50 than verdiperstat or PF06282999, HOCl production (MPO [2]): 2–5 fold | IC50 (MPO [3]): 20 nM | fold lower IC50 than verdiperstat, LDL lipid peroxidation (MPO [3]): 30 fold | partition ratio for MPO inhibition (MPO [4]): 15.7 ± 2.4 | selectivity index over MAO-A (MAO-A, human): > 1000 fold | selectivity index over LOX (LOX, human): > 1000 fold | Cell health (cytotoxicity) (HepG2 cells): no toxicity | Substrate turnover, VAP-1 (recombinant human VAP-1): No oxidative turnover | Substrate turnover, DAO (human DAO): no turnover observed | Eurofins Transporter screen, hits (>50% inhibition) [5]: no significant inhibition | half-life (in vivo; C57Bl/6J, in vivo, po): 2 to 4 h | time of highest drug concentrations after oral gavage (in vivo): 1 h | drug in the brain (in vivo; oral gavage): No drug was detectable | effect on peritoneal MPO activity (MPO [6]; oral 10 mg/kg): no effect | effect on peritoneal MPO activity (MPO [6]; oral 30 mg/kg): no effect | reduction of peritoneal MPO activity (MPO [6]): > 50% | effect on lavage fluid MPO protein concentration (ELISA) (MPO [6]): no effect | neutrophils in the peritoneum [7]: significantly reduced | total immune cells (leucocytes) in the peritoneum [7]: significantly reduced | inhibition of in vivo VAP-1 activity in adipose tissue (VAP-1): > 90% | air pouch exudate volume at 12-h ([8]; SNT-8370 10 mg/kg): significantly reduced | air pouch exudate volume at 12-h [8, 13]: significantly reduced | leucocyte influx into the air pouch at 4-h [8]: significantly reduced | lung infiltration of neutrophils (BALF) [9]: significantly reduced | lung infiltration of total leucocytes (BALF) [9]: significantly reduced | cardiac fibrosis (picrosirius red, Masson's trichrome, periostin) [10]: significantly reduce | ejection fraction post-MI [10]: prevented the significant post-MI reduction | fractional shortening post-MI [10]: prevented the significant post-MI reduction | Eurofins PanLabs screen, hits (>50% inhibition) [11]: No significant off-targets | drug concentration in peritoneal lavage fluid ([12]; oral 10 mg/kg): 1.1 ng/mL | drug concentration in peritoneal lavage fluid ([12]; oral 30 mg/kg): 1.5 ng/mL | drug concentration in peritoneal lavage fluid, molar equivalent ([12]; oral 60 mg/kg): 170 nM | drug concentration in peritoneal lavage fluid ([12]; oral 60 mg/kg): ~ 60 ng/mL | drug concentration in peritoneal lavage fluid, molar equivalent ([12]; oral 10 and 30 mg/kg): < 4 nM

IC50 (MPO [3]): 600 nM | reduction of peritoneal MPO activity (MPO [6]): > 50% | effect on lavage fluid MPO protein concentration (ELISA) (MPO [6]): no effect | drug concentration in peritoneal lavage fluid ([12]; oral 60 mg/kg): > 10 ng/mL
SMILES: CC(C)OCCn1c(=S)[nH]c(=O)c2[nH]ccc21 [Verdiperstat, reference compound]
neutrophils in the peritoneum [7]: Neither of the monotherapy treatments showed a significant effect | total immune cells (leucocytes) in the peritoneum [7]: Neither of the monotherapy treatments showed a significant effect | air pouch exudate volume at 12-h [8, 13]: neither verdiperstat nor PXS-4707, significantly reduced | leucocyte influx into the air pouch at 4-h [8]: significantly reduced | lung infiltration of neutrophils (BALF) [9]: non-significant downward trends | lung infiltration of total leucocytes (BALF) [9]: non-significant downward trends

SMILES: C[C@@H]1C[C@H]2[C@@H]3CCC4=CC(=O)C=C[C@]4(C)[C@@]3(F)[C@@H](O)C[C@]2(C)[C@@]1(O)C(=O)CO [dexamethasone]
air pouch exudate volume at 12-h [8, 13]: significantly reduced | leucocyte influx into the air pouch at 4-h [8]: significantly reduced

From PMC11985910 (Nature Communications, 2025)
